Experimental data as given in patent US12215162B2, “BAFF-R targeted chimeric antigen receptor-modified T-cells and uses thereof” (CITY OF HOPE, priority 2016, dated 2025).

What was measured:
[1] = test system: RS4; 11 (acute lymphoblastic leukemia, ALL); experiment: In vivo RS4;11 ALL tumor model, antibody treatment; parameters: species or system NSG mice; conditions: 200 μg antibody + NK-92-176V cells + IL-2 IV
Excerpt: FIG. 4A is a schematic showing treatment schedule following Day 0 tumor challenge with minimum lethal dose of tumors. Treatments were given by IV tail vein injections. FIGS. 4B and 4C are images showing chimeric antibodies targeting human BAFF-R elicited in vivo therapeutic effects against B-cell tumors. Bioluminescence images of mice challenged with luciferase-expressing tumors: JeKo-1 (MCL) (FIG. 4B) or RS4; 11 (ALL) (FIG. 4C). Experimental groups received treatment of chimeric BAFF-R mAbs (C55 or C90, as indicated). Control group mice received PBS, NK cells alone, or rituximab on the same schedule. Data are representative of three independent experiments.
(§1) In vivo studies. For tumor models, stable, luciferase-expressing tumors lines were established for bioluminescent imaging in mouse models. Briefly, a luciferase gene was introduced into tumor lines by a lentivirus gene delivery system (pLenti7.3/V5-DEST Gateway Vector Kit, Life Technologies, Carlsbad, CA). The minimum lethal dose per mouse was determined for each tumor cell line by dose titration. Tumor cells were injected intravenously (IV) and mice were monitored by in vivo bioluminescence imaging for minimum tumor dose to ensure engraftment. Minimum lethal tumor doses were 1×10^6 JeKo-1, 5×10^5 RS4; 11, 5×10^5 JeKo-1-CD20-KO, or 2.5×10^4 Z-138 cells. […]

JeKo-1-CD20-KO clone 25 = experiment: ADCC against rituximab-resistant JeKo-1-CD20-KO; format: cell-based, human; conditions: NK cells E:T 20:1
Protocol: FIGS. 5A, 5B and 5C are images or graphs showing chimeric BAFF-R antibodies induce ADCC on drug resistant lymphoma models in vitro. FIG. 5A is a scatterplot of FACS analysis showing CD20 binding on JeKo-1 cells following CRISPR/HDR knock-out of CD20 gene. CD20 expression on selected CD20−/−clone #25 compared to WT JeKo-1. ADCC effects measured by chromium-51 release after incubation with C55, C90, or rituximab and effectors NK cells (E:T=20:1). Percentage of cell specific lysis of target cells: rituximab-resistant JeKo-1-CD20-KO (FIG. 5B) and ibrutinib-resistant Z-138 and SP49-IR (FIG. 5C). All data are representative of two or more identical experiments. Data are shown as the mean±s.d. of triplicate samples. *P<0.05 compared with NK cells by two-tailed Student's t-test.
Cytotoxicity assays. Target cells (L cells, human tumor lines, primary patient samples) were labeled with chromium-51 (51Cr, Perkin Elmer, Waltham, MA) for a 51Cr release assay. Briefly, antibodies and effectors (NK cells or complement serum standard [Sigma Aldrich, St. Louis, MO]), were added to labeled target cells and incubated up to 18 hours. NK cells were enriched from PBMC (NK cell enrichment kit, Stemcell Technologies, Vancouver, Canada). 51Cr released into supernatant was detected with a Wizard Automatic Gamma Counter (Perkin Elmer).
Generation of JeKo-1-CD20-KO. […]

JeKo-1-CD20-KO = experiment: In vivo JeKo-1-CD20-KO tumor model, antibody treatment; parameters: species or system NSG mice; conditions: Day 20
Excerpt: FIGS. 6A and 6B are images and FIG. 6C are graphs showing chimeric antibodies targeting human BAFF-R elicited in vivo therapeutic effects against drug resistant B-cell tumors. Bioluminescence images of mice challenged with luciferase-expressing tumors JeKo-1-CD20-KO cells (FIG. 6A) or ibrutinib-resistant Z-138 cells (FIG. 6B) followed by antibody treatments as in FIG. 4. Control group mice received PBS, NK cells alone, or rituximab on the same schedule. […] Tumor free rate and survival differences between experimental and all control groups were analyzed by log-rank test (** P<0.001). Data are representative of three independent experiments.
as §1

[2] = test system: RS4 acute lymphoblastic lymphoma; experiment: Chromium release ADCC on RS4; format: cell-based, human; conditions: NK cells E:T 20:1, 6 hours
Protocol: FIGS. 21A and 21B are graphs showing humanized antibodies C90-4 and C90-5 analyzed for their specific cytotoxicity of various lymphoma lines. For FIG. 21A, JeKo-1, Z138, and RS4 were subjected to a chromium release assay with humanized antibodies C90-4 and C90-5. Antibodies were administered to the cell lines at concentrations between 0 to 5 μg/mL and incubated for 6 hours with NK cells at an E:T ratio of 20:1. The cell supernatants were analyzed for their chromium content. For FIG. 21B, LY-10, MEC-2, RL, and Raji lymphoma lines were subjected to a chromium release assay with humanized antibodies C90-4 and C90-5. Antibodies were administered to the cell lines at 5 μg/mL and incubated for 6 hours with NK cells at an E:T ratio of 20:1. The cell supernatants were analyzed for their chromium content.
The two variants were further assessed in their ability to initiate ADCC. The antibodies were administered in varying concentration to JeKo-1, Z138, and RS4 lines after a period of chromium uptake. The cells and antibodies were incubated with effector NK cells. The supernatant was analyzed 6 hours post treatment (FIG. 21A).

SP49 = conditions: 100 nM ibrutinib; cited from earlier work
SP49-IR = conditions: 100 nM ibrutinib; cited from earlier work

| Compound | tumor growth (bioluminescence) [1] | sensitivity to antibody-mediated cytotoxicity (JeKo-1-CD20-KO clone 25) | tumor burden by bioluminescent imaging (JeKo-1-CD20-KO) | activity (ADCC) [2] | viable cells (SP49) [%] | viable cells (SP49-IR) [%] |
| --- | --- | --- | --- | --- | --- | --- |
| rituximab [reference compound] | no inhibition | insensitive | substantial tumor burden | not active |  |  |
| C=CC(=O)N1CCC[C@@H](n2nc(-c3ccc(Oc4ccccc4)cc3)c3c(N)ncnc32)C1 [ibrutinib] |  |  |  |  | ~5 | > 90 |
